# Assay results reported in paper PMC5128008, “Antimicrobial activity and stability of the D-amino acid substituted derivatives of antimicrobial peptide polybia-MPI” (AMB Express, 2016).
# Where a SMILES comes first, the peptide text is derived from it. Where no end group is shown, it is not given here. [ ]: non-standard residue; d: D form.
# How the values were obtained:
# [1] = test system: Bacillus subtilis (ATCC 23857); assay: MIC, broth microdilution; type: cell-based; settings: Mueller–Hinton broth, 2 × 10^4 cfu/ml, peptide 1 to 256 µM, 18 h, 37 °C, visible turbidity, triplicate
# Protocol: (§1) The minimal inhibitory concentration (MIC) of the peptides was measured in triplicate by the standard broth microdilution method (Peterson et al. [1980]; Wang et al. [2012]). In brief, bacteria/fungi were cultured overnight to mid-logarithmic-phase in Mueller–Hinton broth (MHB)/Sabouraud dextrose broth. The cultures were diluted to a final concentration of 2 × 10^4 cfu/ml in fresh Mueller–Hinton broth (MHB)/Sabouraud dextrose broth. Each well of 96-well propylene microtitre plates was filled with 100 µl cell suspension and 100 μl peptide solution of twofold diluted serially. And the final concentrations of peptide mixtures ranged from 1 to 256 µM. Controls were done without peptides. After 18 h of incubation at 37 °C (bacteria)/35 °C (fungi), the minimal inhibitory concentration (MIC) of the peptides was evaluated by visible turbidity in each well.
# [2] = test system: Candida albicans ATCC (ATCC 14053); assay: MIC, broth microdilution; type: cell-based; settings: Candida albicans (ATCC 14053), Sabouraud dextrose broth, 2 × 10^4 cfu/ml, peptide 1 to 256 µM, 18 h, 35 °C, visible turbidity, triplicate
# Protocol: as §1
# [3] = test system: Candida glabrata ATCC (ATCC 2001); assay: MIC, broth microdilution; type: cell-based; settings: Candida glabrata (ATCC 2001), Sabouraud dextrose broth, 2 × 10^4 cfu/ml, peptide 1 to 256 µM, 18 h, 35 °C, visible turbidity, triplicate
# Protocol: as §1
# [4] = test system: Candida krusei (ATCC 6258); assay: MIC, broth microdilution; type: cell-based; settings: Sabouraud dextrose broth, 2 × 10^4 cfu/ml, peptide 1 to 256 µM, 18 h, 35 °C, visible turbidity, triplicate
# Protocol: as §1
# [5] = test system: Candida parapsilosis (ATCC 22019); assay: MIC, broth microdilution; type: cell-based; settings: Sabouraud dextrose broth, 2 × 10^4 cfu/ml, peptide 1 to 256 µM, 18 h, 35 °C, visible turbidity, triplicate
# Protocol: as §1
# [6] = test system: Candida tropicalis (ATCC 750); assay: MIC, broth microdilution; type: cell-based; settings: Sabouraud dextrose broth, 2 × 10^4 cfu/ml, peptide 1 to 256 µM, 18 h, 35 °C, visible turbidity, triplicate
# Protocol: as §1
# E. coli (ATCC 2592) = assay: MIC, broth microdilution; type: cell-based; settings: Mueller–Hinton broth, 2 × 10^4 cfu/ml, peptide 1 to 256 µM, 18 h, 37 °C, visible turbidity, triplicate
# Protocol: as §1
# [7] = test system: E. coli (ML-35) (ATCC 43827); assay: MIC, broth microdilution; type: cell-based; settings: Mueller–Hinton broth, 2 × 10^4 cfu/ml, peptide 1 to 256 µM, 18 h, 37 °C, visible turbidity, triplicate
# Protocol: as §1
# [8] = test system: Pseudomonas aeruginosa (ATCC 27853); assay: MIC, broth microdilution; type: cell-based; settings: Mueller–Hinton broth, 2 × 10^4 cfu/ml, peptide 1 to 256 µM, 18 h, 37 °C, visible turbidity, triplicate
# Protocol: as §1
# [9] = test system: Staphylococcus aureus (ATCC 29213); assay: MIC, broth microdilution; type: cell-based; settings: Mueller–Hinton broth, 2 × 10^4 cfu/ml, peptide 1 to 256 µM, 18 h, 37 °C, visible turbidity, triplicate
# Protocol: as §1
# [10] = test system: Staphylococcus epidermidis (ATCC 12228); assay: MIC, broth microdilution; type: cell-based; settings: Mueller–Hinton broth, 2 × 10^4 cfu/ml, peptide 1 to 256 µM, 18 h, 37 °C, visible turbidity, triplicate
# Protocol: as §1
# sakazakii (ATCC 29544) [11] = assay: MIC, broth microdilution; type: cell-based; settings: Mueller–Hinton broth, 2 × 10^4 cfu/ml, peptide 1 to 256 µM, 18 h, 37 °C, visible turbidity, triplicate
# Protocol: as §1
# [12] = test system: Bacillus subtilis (ATCC23857); assay: MBC, plating after MIC incubation; type: cell-based; settings: 50 µl aliquots from MIC wells onto agar plates, overnight 37 °C, lowest concentration reducing CFUs at least 99.9%
# Protocol: as §1
# (§2) The minimal bactericidal concentrations (MBCs) and minimum fungicidal concentration (MFCs) of the peptides was determined at the end of the incubation period by transferring 50 µl aliquots onto agar plates and incubated overnight at 37 °C/35 °C. The MBC/MFC was set as the lowest concentration of the number of CFUs that reduced at least 99.9%.
# E. coli (ATCC2592) = assay: MBC, plating after MIC incubation; type: cell-based; settings: 50 µl aliquots from MIC wells onto agar plates, overnight 37 °C, lowest concentration reducing CFUs at least 99.9%
# Protocol: as §1, §2
# [13] = test system: E. coli (ML-35) (ATCC43827); assay: MBC, plating after MIC incubation; type: cell-based; settings: 50 µl aliquots from MIC wells onto agar plates, overnight 37 °C, lowest concentration reducing CFUs at least 99.9%
# Protocol: as §1, §2
# [14] = test system: Pseudomonas aeruginosa (ATCC27853); assay: MBC, plating after MIC incubation; type: cell-based; settings: 50 µl aliquots from MIC wells onto agar plates, overnight 37 °C, lowest concentration reducing CFUs at least 99.9%
# Protocol: as §1, §2
# [15] = test system: Staphylococcus aureus (ATCC29213); assay: MBC, plating after MIC incubation; type: cell-based; settings: 50 µl aliquots from MIC wells onto agar plates, overnight 37 °C, lowest concentration reducing CFUs at least 99.9%
# Protocol: as §1, §2
# [16] = test system: Staphylococcus epidermidis (ATCC 12228); assay: MBC, plating after MIC incubation; type: cell-based; settings: 50 µl aliquots from MIC wells onto agar plates, overnight 37 °C, lowest concentration reducing CFUs at least 99.9%
# Protocol: as §1, §2
# sakazakii (ATCC 29544) [17] = assay: MBC, plating after MIC incubation; type: cell-based; settings: 50 µl aliquots from MIC wells onto agar plates, overnight 37 °C, lowest concentration reducing CFUs at least 99.9%
# Protocol: as §1, §2
# C. albicans (ATCC 14053) = assay: MFC, plating after MIC incubation; type: cell-based; settings: 50 µl aliquots from MIC wells onto agar plates, overnight 35 °C, lowest concentration reducing CFUs at least 99.9%
# Protocol: as §1, §2
# C. glabrata (ATCC 2001) = assay: MFC, plating after MIC incubation; type: cell-based; settings: 50 µl aliquots from MIC wells onto agar plates, overnight 35 °C, lowest concentration reducing CFUs at least 99.9%
# Protocol: as §1, §2
# C. krusei (ATCC 6258) = assay: MFC, plating after MIC incubation; type: cell-based; settings: 50 µl aliquots from MIC wells onto agar plates, overnight 35 °C, lowest concentration reducing CFUs at least 99.9%
# Protocol: as §1, §2
# [18] = test system: C. parapsilosis (ATCC 22019); assay: MFC, plating after MIC incubation; type: cell-based; settings: 50 µl aliquots from MIC wells onto agar plates, overnight 35 °C, lowest concentration reducing CFUs at least 99.9%
# Protocol: as §1, §2
# C.tropicalis (ATCC 750) = assay: MFC, plating after MIC incubation; type: cell-based; settings: 50 µl aliquots from MIC wells onto agar plates, overnight 35 °C, lowest concentration reducing CFUs at least 99.9%
# Protocol: as §1, §2
# trypsin = assay: RP-HPLC analysis of stability to trypsin; type: in vitro ADME; settings: peptide 10 mM, trypsin 0.2 mg/ml, 37 °C, 0 and 360 min, TFA/acetonitrile precipitation, Fig. 7
# Protocol: (§3) The stability of polybia-MPI and its analogues was assayed with trypsin or chymotrypsin in a volume ratio of 1:15 (peptide:trypsin) (Choi et al. [2013]; Hamamoto et al. [2002]; Molhoek et al. [2011]). Peptides at the concentration of 10 mM were incubated with trypsin or chymotrypsin (0.2 mg/ml) at 37 °C. 40 µl samples of the incubations were taken for the time of 0 and 360 min, respectively. Then, the samples were mixed with 80 µl of 15% trifluoroacetic acid (TFA) and 80 µl acetonitrile which incubated at 4 °C for at least 15 min to precipitate proteins. The supernatant was collected of each sample after centrifugation at 13,000 rpm for 10 min and were detected with reverse phase high performance liquid chromatography (RP-HPLC) analysis.
# (§4) Fig. 7 HPLC analysis of the susceptibility of polybia-MPI, D-MPI and D-lys-MPI to trypsin and chymotrypsin. Peptides at the concentration of 10 mM were incubated with trypsin or chymotrypsin at 37 °C. At the determined time interval, samples were taken and mixed with trifluoroacetic acid (TFA) and acetonitrile to precipitate proteins, respectively. Then the samples were detected with reverse phase high performance liquid chromatography (RP-HPLC) analysis
# chymotrypsin = assay: RP-HPLC analysis of stability to chymotrypsin; type: in vitro ADME; settings: peptide 10 mM, chymotrypsin 0.2 mg/ml, 37 °C, 0 and 360 min, TFA/acetonitrile precipitation, Fig. 7
# Protocol: as §3, §4
# (ATCC 700603) = settings: ATCC 700603, 18 h
Compound,MIC [1],MIC [2],MIC [3],MIC [4],MIC [5],MIC [6],MIC (E. coli (ATCC 2592)),MIC [7],MIC [8],MIC [9],MIC [10],MIC (sakazakii (ATCC 29544) [11]),MBC/MFC [12],MBC/MFC (E. coli (ATCC2592)),MBC/MFC [13],MBC/MFC [14],MBC/MFC [15],MBC/MFC [16],MBC/MFC (sakazakii (ATCC 29544) [17]),MBC/MFC (C. albicans (ATCC 14053)),also measured
CC[C@H](C)[C@H](N)C(=O)N[C@@H](CC(=O)O)C(=O)N[C@@H](Cc1c[nH]c2ccccc12)C(=O)N[C@H](CCCCN)C(=O)N[C@H](CCCCN)C(=O)N[C@@H](CC(C)C)C(=O)N[C@@H](CC(C)C)C(=O)N[C@@H](CC(=O)O)C(=O)N[C@@H](C)C(=O)N[C@@H](C)C(=O)N[C@H](CCCCN)C(=O)N[C@@H](CCC(N)=O)C(=O)N[C@H](C(=O)N[C@@H](CC(C)C)C(N)=O)[C@@H](C)CC [D-lys-MPI] (H-IDW[dK][dK]LLDAA[dK]QIL-NH2),>256 µM,256 µM,128 µM,128 µM,>256 µM,64 µM,>256 µM,>256 µM,>256 µM,>256 µM,256 µM,>256 µM,>256 µM,>256 µM,>256 µM,>256 µM,>256 µM,>256 µM,>256 µM,>256 µM,MBC/MFC (C. glabrata (ATCC 2001)): 256 µM; MBC/MFC (C. krusei (ATCC 6258)): 256 µM; MBC/MFC [18]: >256 µM; MBC/MFC (C.tropicalis (ATCC 750)): 128 µM; susceptibility to trypsin by HPLC profile (trypsin): not or only partly degraded; susceptibility to chymotrypsin by HPLC profile (chymotrypsin): not or only partly degraded; MIC ((ATCC 700603)): >256 µM
CC[C@@H](C)[C@@H](N)C(=O)N[C@H](CC(=O)O)C(=O)N[C@H](Cc1c[nH]c2ccccc12)C(=O)N[C@H](CCCCN)C(=O)N[C@H](CCCCN)C(=O)N[C@H](CC(C)C)C(=O)N[C@H](CC(C)C)C(=O)N[C@H](CC(=O)O)C(=O)N[C@H](C)C(=O)N[C@H](C)C(=O)N[C@H](CCCCN)C(=O)N[C@H](CCC(N)=O)C(=O)N[C@@H](C(=O)N[C@H](CC(C)C)C(N)=O)[C@H](C)CC [D-MPI] (H-[dI][dD][dW][dK][dK][dL][dL][dD][dA][dA][dK][dQ][dI][dL]-NH2),8 µM,16 µM,16 µM,8 µM,32 µM,16 µM,16 µM,32 µM,64 µM,16 µM,16 µM,32 µM,8 µM,16 µM,64 µM,128 µM,64 µM,128 µM,64 µM,16 µM,MBC/MFC (C. glabrata (ATCC 2001)): 32 µM; MBC/MFC (C. krusei (ATCC 6258)): 8 µM; MBC/MFC [18]: 32 µM; MBC/MFC (C.tropicalis (ATCC 750)): 16 µM; susceptibility to trypsin by HPLC profile (trypsin): not or only partly degraded; susceptibility to chymotrypsin by HPLC profile (chymotrypsin): not or only partly degraded; MIC ((ATCC 700603)): 64 µM
IDWKKLLDAAKQIL-NH2 [Polybia-MPI],8 µM,16 µM,8 µM,8 µM,64 µM,8 µM,32 µM,32 µM,128 µM,32 µM,32 µM,64 µM,8 µM,32 µM,256 µM,>256 µM,128 µM,32 µM,64 µM,16 µM,MBC/MFC (C. glabrata (ATCC 2001)): 32 µM; MBC/MFC (C. krusei (ATCC 6258)): 16 µM; MBC/MFC [18]: 128 µM; MBC/MFC (C.tropicalis (ATCC 750)): 32 µM; susceptibility to trypsin by HPLC profile (trypsin): susceptible; susceptibility to chymotrypsin by HPLC profile (chymotrypsin): susceptible; MIC ((ATCC 700603)): 64 µM
